According to patent CN101879305A, “血清胸腺因子在制备抗肿瘤药物、肿瘤物理及化学治疗药物的保护药物方面的用途” (priority 2007, dated 2010):
Ends that are not written are not given here.

How the values were obtained:
[1] = system: EAC腹水瘤; assay: Anti-tumour test, EAC ascites tumour in mice (Example 1); format: in vivo, 昆明小鼠; conditions: positive control 5-氟尿嘧啶 25mg·kg-1, every other day, three times
[2] = Immune indicators in Co60-irradiated mice (white cell count, carbon clearance, organ indices) (Example 8); format: in vivo, 昆明鼠; conditions: 650 rad Co60, after one week
[3] = system: H22实体瘤; assay: Anti-tumour test, H22 solid tumour in mice (Example 2); format: in vivo, 昆明小鼠; conditions: positive control 环磷酰胺 20mg·kg-1, single dose
[4] = system: Walker-256瘤; assay: Anti-tumour test, Walker-256 tumour in rats (Example 3); format: in vivo, Wistar大鼠; conditions: positive control 环磷酰胺 89.2mg.kg-1, single dose
[5] = system: 人肝癌Heps瘤; assay: Anti-tumour test, human liver cancer Heps xenograft in nude mice (Example 4); format: in vivo, 裸鼠; conditions: positive control 环磷酰胺 10mg·kg-1, single dose
[6] = Acute toxicity, single tail-vein injection, 7-day observation (Example 7); format: in vivo, 昆明小鼠; conditions: for 死亡(%): 20 mice, 7 days; for 给药前体重: before dosing (baseline)

O=c1[nH]cc(F)c(=O)[nH]1 [5-氟尿嘧啶]
生存时间(天) [1]: 24.3±4.1 天 | 生命延长率 ([1]; vs blank group): 82.7 %

C#C[C@]1(O)[C@H](O)C[C@H]2[C@@H]3CCc4cc(OC5CCCC5)ccc4[C@H]3CC[C@@]21C [尼尔雌醇]
体重增加 ([2]; positive control 尼尔雌醇 0.05mg/只 single gavage): 3.47 | 吞噬指数α ([2]; 尼尔雌醇 0.05mg/只 single gavage): 6.00 | 廓清指数K ([2]; 尼尔雌醇 0.05mg/只 single gavage): 0.033 | 白细胞个数(个/mm3) ([2]; 尼尔雌醇 0.05mg/只 single gavage): 2693 个/mm3 | 胸腺指数(mg/10g) ([2]; 尼尔雌醇 0.05mg/只 single gavage): 28.32 mg/10g | 脾指数(mg/10g) ([2]; 尼尔雌醇 0.05mg/只 single gavage): 8.96 mg/10g

C#C[C@]1(O)[C@H](O)C[C@H]2[C@@H]3CCc4cc(OC5CCCC5)ccc4[C@H]3CC[C@@]21C [环磷酰胺]
实体瘤的重量 [3]: 0.6 ± 0.5 g | 抑瘤率 ([3]; vs blank group): 84.8 % | 肿瘤的重量 [4]: 2.6 ± 1.7 g | 抑瘤率(%) ([4]; vs blank group): 85.4 % | 抑瘤率 [5]: 62.43 % | 肿瘤的体积(mm3) [5]: 99.73±68.60 mm3 | 肿瘤的重量 [5]: 0.57 ± 0.12 g

EAKSQGGSN [FTS, Glu-Ala-Lys-Ser-Gln-Gly-Gly-Ser-Asn]
死亡(%) ([6]; 5.0 mg/kg (0.5 mg/ml) i.v. tail vein once): 0 % | 给药前体重 ([6]; 5.0 mg/kg group): 22.3 ± 2.1 g | 死亡(%) ([6]; 10.0 mg/kg (1.0 mg/ml) i.v. tail vein once): 0 % | 给药前体重 ([6]; 10.0 mg/kg group): 23.4 ± 3.1 g | 死亡(%) ([6]; 50.0 mg/kg (5.0 mg/ml) i.v. tail vein once): 0 % | 给药前体重 ([6]; 50.0 mg/kg group): 23.6 ± 2.5 g | 死亡(%) ([6]; 100.0 mg/kg (10.0 mg/ml) i.v. tail vein once): 0 % | 给药前体重 ([6]; 100.0 mg/kg group): 23.1 ± 2.8 g | 毒性反应或死亡 ([6]; 5.0, 10.0, 50.0 and 100.0 mg/kg groups, i.v.): 未发现任何毒性反应或死亡
